Experiments:
KMS12PE Bcl2 V156D = assay: In vitro cytotoxicity CellTiterGlo 72 h, KMS12PE Bcl2 V156D; format: cell-based; settings: Homo sapiens, KMS-12-PE, read-out: C50 nM, KMS12PE Bcl2 V156D
Protocol: (§1) KMS-12-PE (ACC 606) were purchased from the Leibniz-Institute DSMZ (Braunschweig, Germany) and were grown at 37° C. in a humidified atmosphere with 5% CO2 in media recommended by the suppliers. Lentiviral particles containing Bcl-2 wild type (also named “Bcl2 WT”), Bcl-2 mutated on G101V (also named “Bcl2 G101V”), Bcl-2 mutated on D103Y (also named “Bcl2 D103Y”), Bcl-2 mutated on D103V (also named “Bcl2 D103V”), Bcl-2 mutated on D103E (also named “Bcl2 D103E”), Bcl-2 mutated on F104I (also named “Bcl2 F104I”), Bcl-2 mutated on F104L (also named “Bcl2 F104L”), Bcl-2 mutated on D111A (also named “Bcl2 D111A”), Bcl-2 mutated on A113G (also named “Bcl2 A113G”), Bcl-2 mutated on R129L (also named “Bcl2 R129L”), Bcl-2 mutated on V156D (also named “Bcl2 V156D”) were cloned into pcLV-CMV-DEST-IRES-TagRFP. Lentiviral particles (1×10^6) were mixed with Polybrene at 8 μg/ml and transduced by spinoculation for 1 h at 32° C. and incubated overnight. After 8 days, TagRFP positive-cells were sorted by FACS. BCL2 expression was monitored by immunoblotting using anti-Flag and anti-BCL2 antibodies. Cells were seeded into 96-wells plates and treated with 1:3.16 serial dilution of compounds (9 different concentrations). Cell viability was assessed using CellTiterGlo reagent following treatment for 72 h. Results were normalized to the viability of cells without compounds (control wells). The C50 values were calculated using nonlinear regression algorithms in XCell software.

BCL2 D103Y = BCL2 D103Y (Homo sapiens, UniProt P10415, D103Y); assay: TR-FRET competitive binding assay, BCL2 D103Y; settings: Ki determined from IC50, read-out: TR_FRET EKI_Bcl2 D103Y
Outline: (§2)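 Competitive TR-FRET displacement of fluorescein-PUMA peptide (2 or 20 nM) from 0.5 nM terbium-labelled N-terminal Halo-fusion BCL2 (1-207, wild type or mutant) or BCLXL (2-196), expressed in E. coli. Buffer 50 mM Hepes pH 7.5, 150 mM NaCl, 5% DMSO; 2 h at 23°C. 520/495 nm ratio fitted over 11 points for IC50, converted to Ki.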

BCL2 D111A = BCL2 D111A (Homo sapiens, UniProt P10415, D111A); assay: TR-FRET competitive binding assay, BCL2 D111A; settings: Ki determined from IC50, read-out: TR_FRET EKI_Bcl2 D111A
Outline: as §2

KMS12PE Bcl2 A113G = assay: In vitro cytotoxicity CellTiterGlo 72 h, KMS12PE Bcl2 A113G; format: cell-based; settings: Homo sapiens, KMS-12-PE, read-out: C50 nM, KMS12PE Bcl2 A113G
Protocol: as §1

BCL2 WT = BCL2 WT (Homo sapiens (Human), UniProt P10415); assay: TR-FRET competitive binding assay, BCL2 WT; settings: Ki determined from IC50, read-out: TR_FRET EKI_Bcl2 WT
Outline: as §2

KMS12PE Bcl2 WT = assay: In vitro cytotoxicity CellTiterGlo 72 h, KMS12PE Bcl2 WT; format: cell-based; settings: Homo sapiens, KMS-12-PE, read-out: C50 nM, KMS12PE Bcl2 WT
Protocol: as §1

KMS12PE Bcl2 D103Y = assay: In vitro cytotoxicity CellTiterGlo 72 h, KMS12PE Bcl2 D103Y; format: cell-based; settings: Homo sapiens, KMS-12-PE, read-out: C50 nM, KMS12PE Bcl2 D103Y
Protocol: as §1

BCL2 G101V [1] = assay: TR-FRET competitive binding assay, BCL2 G101V; set-up: species or system human; settings: ratio Ki BCL2 G101V / Ki BCL2 WT
Outline: as §2

BCL2 G101V [2] = molecular target: BCL2 G101V (Homo sapiens, UniProt P10415, G101V); assay: TR-FRET competitive binding assay, BCL2 G101V; settings: BCL2 G101V; Ki determined from IC50; read-out: TR_FRET EKI_Bcl2 G101V
Outline: as §2

KMS12PE Bcl2 D103E = assay: In vitro cytotoxicity CellTiterGlo 72 h, KMS12PE Bcl2 D103E; format: cell-based; settings: Homo sapiens, KMS-12-PE, read-out: C50 nM, KMS12PE Bcl2 D103E
Protocol: as §1

| SMILES | IC50 (KMS12PE Bcl2 V156D) [nM] | Ki (BCL2 D103Y) [nM] | Ki (BCL2 D111A) [nM] | IC50 (KMS12PE Bcl2 A113G) [nM] | Ki (BCL2 WT) [nM] | IC50 (KMS12PE Bcl2 WT) [nM] | IC50 (KMS12PE Bcl2 D103Y) [nM] | TR_FRET EKI G101V/WT selectivty ratio (BCL2 G101V [1]) | Ki (BCL2 G101V [2]) [nM] | IC50 (KMS12PE Bcl2 D103E) [nM] |
| --- | --- | --- | --- | --- | --- | --- | --- | --- | --- | --- |
| Cc1c(N(C(=O)c2cc(-c3cc4c(cc3C(=O)N3Cc5ccccc5C[C@H]3C)CN(C(=O)Cc3ccc(OCCN5CCOCC5)cc3)CC4)n(C)c2C)c2ccc(O)cc2)cc(C#N)n1C [Example 21, N-(5-cyano-1,2-dimethyl-1H-pyrrol-3-yl)-N-(4-hydroxyphenyl)-1,2-dimethyl-5-{7-[(3R)-3-methyl-1,2,3,4-tetrahydroisoquinoline-2-carbonyl]-2-(2-{4-[2-(morpholin-4-yl)ethoxy]phenyl}acetyl)-1,2,3,4-tetrahydroisoquinolin-6-yl}-1H-pyrrole-3-carboxamide] | 9.77 | 0.35 | 0.19 | 4.06 | 0.11 | 2.56 | 2.1 | 3.1 | 0.3 | 2.36 |
| Cc1c(N(C(=O)c2cc(-c3cc4c(cc3C(=O)N3Cc5ccccc5C[C@H]3C)CN(C(=O)Cc3ccc(OCCC5CCOCC5)cc3)CC4)n(C)c2C)c2ccc(O)cc2)cc(C#N)n1C [Example 27, N-(5-cyano-1,2-dimethyl-1H-pyrrol-3-yl)-N-(4-hydroxyphenyl)-1,2-dimethyl-5-{7-[(3R)-3-methyl-1,2,3,4-tetrahydroisoquinoline-2-carbonyl]-2-(2-{4-[2-(oxan-4-yl)ethoxy]phenyl}acetyl)-1,2,3,4-tetrahydroisoquinolin-6-yl}-1H-pyrrole-3-carboxamide] | 3.84 | 0.73 | 1.67 | 2.79 | 0.8 | 1.53 | 1.1 | 1.5 | 1.2 | 1.44 |
| Cc1c(N(C(=O)c2cc(-c3cc4c(cc3C(=O)N3Cc5ccccc5C[C@H]3CN3CCCCC3)CN(C(=O)Cc3ccc(OCCN5CCOCC5)cc3F)CC4)n(C)c2C)c2ccc(O)cc2)cc(C#N)n1C [Example 43, N-(5-cyano-1,2-dimethylpyrrol-3-yl)-5-[2-(2-{2-fluoro-4-[2-(morpholin-4-yl)ethoxy]phenyl}acetyl)-7-{[(3S)-3-(piperidin-1-ylmethyl)-3,4-dihydro-1H-isoquinolin-2-yl]carbonyl}-3,4-dihydro-1H-isoquinolin-6-yl]-N-(4-hydroxyphenyl)-1,2-dimethylpyrrole-3-carboxamide] | 6.63 | 0.14 | 0.1 | 2.5 | 0.04 | 1.8 | 1.28 | 5.0 | 0.2 | 1.44 |
| Cc1c(N(C(=O)c2cc(-c3cc4c(cc3C(=O)N3Cc5ccccc5C[C@H]3C)CN(C(=O)Cc3ccc(N5CCN6CCOC[C@@H]6C5)cc3F)CC4)n(C)c2C)c2ccc(O)cc2)cc(C#N)n1C [Example 45, 5-[2-(2-{4-[(9aS)-octahydropyrazino[2,1-c][1,4]oxazin-8-yl]-2-fluorophenyl}acetyl)-7-[(3R)-3-methyl-1,2,3,4-tetrahydroisoquinoline-2-carbonyl]-1,2,3,4-tetrahydroisoquinolin-6-yl]-N-(5-cyano-1,2-dimethyl-1H-pyrrol-3-yl)-N-(4-hydroxyphenyl)-1,2-dimethyl-1H-pyrrole-3-carboxamide] | 0.96 | 0.15 | 0.19 | 8.03 | 0.08 | 3.3 | 0.2 | 4.8 | 0.4 | 2.7 |
| Cc1c(N(C(=O)c2cc(-c3cc4c(cc3C(=O)N3Cc5ccccc5C[C@H]3C)CN(C(=O)Cc3ccc(CCN5CCC(F)(F)CC5)cc3)CC4)n(C)c2C)c2ccc(O)cc2)cc(C#N)n1C [Example 51, N-(5-cyano-1,2-dimethylpyrrol-3-yl)-5-[2-(2-{4-[2-(4,4-difluoropiperidin-1-yl)ethyl]phenyl}acetyl)-7-{[(3R)-3-methyl-3,4-dihydro-1H-isoquinolin-2-yl]carbonyl}-3,4-dihydro-1H-isoquinolin-6-yl]-N-(4-hydroxyphenyl)-1,2-dimethylpyrrole-3-carboxamide] | 31.9 | 0.92 | 0.89 | 9.24 | 0.22 | 2.82 | 2.79 | 4.5 | 1 | 2.81 |
| COC[C@@H]1Cc2ccccc2CN1C(=O)c1cc2c(cc1-c1cc(C(=O)N(c3ccc(O)cc3)c3cc(C#N)n(C)c3C)c(C)n1C)CCN(C(=O)Cc1ccc(OCCC3CCOCC3)cc1F)C2 [Example 52, N-(5-cyano-1,2-dimethylpyrrol-3-yl)-5-[2-(2-{2-fluoro-4-[2-(oxan-4-yl)ethoxy]phenyl}acetyl)-7-{[(3S)-3-(methoxymethyl)-3,4-dihydro-1H-isoquinolin-2-yl]carbonyl}-3,4-dihydro-1H-isoquinolin-6-yl]-N-(4-hydroxyphenyl)-1,2-dimethylpyrrole-3-carboxamide] | 10.6 | 0.23 | 0.64 | 3.99 | 0.2 | 2.07 | 1.8 | 2.3 | 0.5 | 1.86 |
| Cc1c(N(C(=O)c2cc(-c3cc4c(cc3C(=O)N3Cc5ccccc5C[C@H]3C)CN(C(=O)Cc3ccc(OCCN5CCC(F)CC5)cc3)CC4)n(C)c2C)c2ccc(O)cc2)cc(C#N)n1C [Example 53, N-(5-cyano-1,2-dimethyl-1H-pyrrol-3-yl)-5-[2-(2-{4-[2-(4-fluoropiperidin-1-yl)ethoxy]phenyl}acetyl)-7-[(3R)-3-methyl-1,2,3,4-tetrahydroisoquinoline-2-carbonyl]-1,2,3,4-tetrahydroisoquinolin-6-yl]-N-(4-hydroxyphenyl)-1,2-dimethyl-1H-pyrrole-3-carboxamide] | 21.4 | 0.18 | 0.18 | 5.68 | 0.07 | 2.88 | 2.61 | 2.8 | 0.2 | 2.76 |
| Cc1c(N(C(=O)c2cc(-c3cc4c(cc3C(=O)N3Cc5ccccc5C[C@H]3C)CN(C(=O)Cc3ccc(OCCN5CCSCC5)cc3)CC4)n(C)c2C)c2ccc(O)cc2)cc(C#N)n1C [Example 55, N-(5-cyano-1,2-dimethyl-1H-pyrrol-3-yl)-N-(4-hydroxyphenyl)-1,2-dimethyl-5-{7-[(3R)-3-methyl-1,2,3,4-tetrahydroisoquinoline-2-carbonyl]-2-(2-{4-[2-(thiomorpholin-4-yl)ethoxy]phenyl}acetyl)-1,2,3,4-tetrahydroisoquinolin-6-yl}-1H-pyrrole-3-carboxamide] | 14.9 | 0.16 | 0.25 | 5.53 | 0.1 | 2.61 | 2.5 | 2.4 | 0.2 | 2.91 |

Reference: patent publication US20250179047A1, “5-[7-(3,4-DIHYDRO-1H-ISOQUINOLINE-2-CARBONYL)-1,2,3,4 TETRAHYDROISOQUINOLIN-6-YL]-1H-PYRROLE-3-CARBOXAMIDE DERIVATIVES, PHARMACEUTICAL COMPOSITIONS CONTAINING THEM AND THEIR USES AS PRO-APOPTOTIC AGENTS” (LES LABORATOIRES SERVIER, priority 2022, published 2025)
